The target in one experiment is T1, rat FAAH (Rattus norvegicus, UniProt P97612).
T1 sequence (P97612 1-579): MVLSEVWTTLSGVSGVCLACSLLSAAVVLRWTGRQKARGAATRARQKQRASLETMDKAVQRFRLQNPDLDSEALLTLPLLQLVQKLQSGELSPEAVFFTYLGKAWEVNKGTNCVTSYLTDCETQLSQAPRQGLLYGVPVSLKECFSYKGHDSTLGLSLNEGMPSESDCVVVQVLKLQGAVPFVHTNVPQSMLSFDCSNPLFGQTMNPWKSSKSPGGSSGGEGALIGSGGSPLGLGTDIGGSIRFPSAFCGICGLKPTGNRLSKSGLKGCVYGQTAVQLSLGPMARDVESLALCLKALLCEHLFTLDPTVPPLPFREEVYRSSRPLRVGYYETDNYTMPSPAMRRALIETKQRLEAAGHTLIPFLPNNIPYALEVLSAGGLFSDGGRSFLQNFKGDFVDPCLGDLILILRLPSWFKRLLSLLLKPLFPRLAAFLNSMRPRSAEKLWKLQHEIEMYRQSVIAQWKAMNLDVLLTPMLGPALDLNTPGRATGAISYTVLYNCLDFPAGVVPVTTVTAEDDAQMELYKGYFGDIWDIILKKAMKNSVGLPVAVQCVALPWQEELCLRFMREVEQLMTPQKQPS
In words: Assay Method 2: FAAH assay, 3H-anandamide hydrolysis in homogenate of SK-N-MC cells transfected with rat FAAH. It is filed as biochemical. The settings on record: average of results, > = solubility limit or highest concentration tested. The method, boiled down: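 Homogenate of SK-N-MC cells stably transfected with rat FAAH cDNA (G418-selected clones) in pH 9 Tris/EDTA/glycerol/Triton buffer. Incubated with compound and 80 nM final [3H]-anandamide for 1 h at rt. Released [3H]-ethanolamine separated from substrate on activated charcoal filters and counted by scintillation.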

Another experiment addresses T2, FAAH (Homo sapiens, UniProt O00519).
T2 sequence (O00519 1-579): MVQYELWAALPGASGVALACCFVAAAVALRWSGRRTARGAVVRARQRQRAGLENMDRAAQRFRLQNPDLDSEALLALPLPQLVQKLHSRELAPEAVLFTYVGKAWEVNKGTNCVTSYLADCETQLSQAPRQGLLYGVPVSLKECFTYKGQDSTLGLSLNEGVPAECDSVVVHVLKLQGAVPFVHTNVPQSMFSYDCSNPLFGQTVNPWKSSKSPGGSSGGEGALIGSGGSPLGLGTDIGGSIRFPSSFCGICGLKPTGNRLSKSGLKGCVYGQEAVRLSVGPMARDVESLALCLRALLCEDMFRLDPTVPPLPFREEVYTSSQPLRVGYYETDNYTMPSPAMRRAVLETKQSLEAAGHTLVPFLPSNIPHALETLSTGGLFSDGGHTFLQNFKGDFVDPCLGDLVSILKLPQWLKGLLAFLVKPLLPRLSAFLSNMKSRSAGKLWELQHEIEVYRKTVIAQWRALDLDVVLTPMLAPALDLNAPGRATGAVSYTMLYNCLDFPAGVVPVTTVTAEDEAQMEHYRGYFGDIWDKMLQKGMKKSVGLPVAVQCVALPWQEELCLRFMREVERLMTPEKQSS
The experiment can be described thus: Assay Method 1: FAAH assay, 3H-anandamide hydrolysis in homogenate of T84 cells or SK-N-MC cells transfected with human FAAH. It is filed as biochemical. The settings on record: average of results, > = solubility limit or highest concentration tested. The method, boiled down:
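Homogenates of T84 cells or of SK-N-MC cells stably transfected with human FAAH (G418-selected) were prepared in pH 9 Tris/EDTA/glycerol/Triton buffer. They were incubated with compound and 80 nM final ^3H-anandamide for 1 h at rt. Released ^3H-ethanolamine was separated on activated charcoal and counted by scintillation.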

pIC50: −log10 of the molar value. Counter-ions that a name gives are not always drawn.

Regarding `CN(C)CC#Cc1cccc(CN2CCN(C(=O)Nc3noc4ccccc34)CC2)c1` [Example 69, N-1,2-Benzisoxazol-3-yl-4-{3-[3-(dimethylamino)prop-1-yn-1-yl]benzyl}-piperazine-1-carboxamide], the pIC50 at rat FAAH was 5.70; against FAAH, 7.36.

For the molecule `O=C(Nc1noc2ccccc12)N1CCN(Cc2cccc(C#CC3CCCCC3)c2)CC1` [Example 70, N-1,2-Benzisoxazol-3-yl-4-[3-(cyclohexylethynyl)benzyl]-piperazine-1-carboxamide], the negative-log IC50 (pIC50) on rat FAAH and against FAAH was 7.34 in each case.

Consider `O=C(Nc1noc2ccccc12)N1CCN(Cc2cccc(C#CC3CCCC3)c2)CC1` [Example 71, N-1,2-Benzisoxazol-3-yl-4-[3-(cyclopentylethynyl)benzyl]-piperazine-1-carboxamide], for which the pIC50 was 7.30 on rat FAAH and 7.89 on FAAH.

For the molecule `O=C(Nc1noc2ccccc12)N1CCN(Cc2cccc(C#Cc3ccccc3Cl)c2)CC1` [Example 72, N-1,2-Benzisoxazol-3-yl-4-{3-[(2-chlorophenyl)-ethynyl]benzyl}-piperazine-1-carboxamide], the pIC50 against rat FAAH is 7.52; against FAAH it was 7.62.

For the molecule `O=C(Nc1noc2ccccc12)N1CCN(Cc2cccc(C#Cc3cccc(Cl)c3)c2)CC1` [Example 73, N-1,2-Benzisoxazol-3-yl-4-{3-[(3-chlorophenyl)ethynyl]benzyl}-piperazine-1-carboxamide], the pIC50 against rat FAAH is 7.48; against FAAH, 7.62.

Turning to `O=C(Nc1noc2ccccc12)N1CCN(Cc2cccc(C#Cc3ccc(Cl)cc3)c2)CC1` [Example 74, N-1,2-Benzisoxazol-3-yl-4-{3-[(4-chlorophenyl)ethynyl]benzyl}-piperazine-1-carboxamide], the figures for the pIC50 against rat FAAH and against FAAH were 6.49 and 6.39, respectively.

`O=C(Nc1noc2ccccc12)N1CCN(Cc2cccc(C#Cc3ccc(Cl)c(Cl)c3)c2)CC1` [Example 75, N-1,2-Benzisoxazol-3-yl-4-{3-[(3,4-dichlorophenyl)ethynyl]-benzyl}-piperazine-1-carboxamide]: the figures for the pIC50 against rat FAAH and on FAAH were 6.96 and 6.91, respectively.

As to `O=C(Nc1noc2ccccc12)N1CCN(Cc2cccc(C#CC3CC3)c2)CC1` [Example 76, N-1,2-Benzisoxazol-3-yl-4-[3-(cyclopropylethynyl)benzyl]-piperazine-1-carboxamide], the pIC50 at rat FAAH was 6.40; against FAAH, 8.00.

`O=C(Nc1noc2ccccc12)N1CCN(Cc2cccc(C#Cc3ccsc3)c2)CC1` [Example 77, N-1,2-Benzisoxazol-3-yl-4-[3-(thiophen-3-ylethynyl)benzyl]-piperazine-1-carboxamide]: the values for the pIC50 against rat FAAH and on FAAH were 7.19 and 7.92, respectively.

In the case of `O=C(Nc1cnccn1)N1CCN(Cc2cccc(C#Cc3ccccc3Cl)c2)CC1` [Example 78, 4-{3-[(2-Chlorophenyl)ethynyl]benzyl}-N-pyrazin-2-ylpiperazine-1-carboxamide hydrochloride salt], the negative-log IC50 (pIC50) was 6.39 against rat FAAH and 7.23 against FAAH.

Regarding `O=C(Nc1cccnn1)N1CCN(Cc2cccc(C#Cc3ccccc3Cl)c2)CC1` [Example 79, 4-{3-[(2-Chlorophenyl)ethynyl]benzyl}-N-pyridazin-3-ylpiperazine-1-carboxamide], the results for the negative logarithm of the IC50 (pIC50) at rat FAAH and on FAAH were 6.49 and 7.34, respectively.

Consider `Cc1cnc(NC(=O)N2CCN(Cc3cccc(C#Cc4ccccc4Cl)c3)CC2)cn1` [Example 80, 4-{3-[(2-Chlorophenyl)ethynyl]benzyl}-N-(5-methylpyrazin-2-yl)piperazine-1-carboxamide], for which the negative-log IC50 (pIC50) at rat FAAH is 5.40; against FAAH, 5.30.

As for `O=C(Nc1noc2ccccc12)N1CCN(Cc2cccc(C#Cc3ccc(Cl)cc3Cl)c2)CC1` [Example 81, N-1,2-Benzisoxazol-3-yl-4-{3-[(2,4-dichlorophenyl)-ethynyl]benzyl}-piperazine-1-carboxamide], the negative-log IC50 (pIC50) was 6.62 against rat FAAH and 6.34 against FAAH.

In the case of `O=C(Nc1noc2ccccc12)N1CCN(Cc2cccc(C#Cc3ccccc3OC(F)(F)F)c2)CC1` [Example 82, N-1,2-Benzisoxazol-3-yl-4-(3-{[2-(trifluoromethoxy)phenyl]-ethynyl}benzyl)-piperazine-1-carboxamide], the pIC50 is 6.59 against rat FAAH and 6.57 at FAAH.

`O=C(Nc1noc2ccccc12)N1CCN(Cc2cccc(C#Cc3cc(Cl)cc(Cl)c3)c2)CC1` [Example 83, N-1,2-Benzisoxazol-3-yl-4-{3-[(3,5-dichlorophenyl)ethynyl]benzyl}-piperazine-1-carboxamide]: the pIC50 was 7.70 against rat FAAH and 7.46 on FAAH.

As to `O=C(Nc1noc2ccccc12)N1CCN(Cc2cccc(C#Cc3cc(Cl)ccc3Cl)c2)CC1` [Example 84, N-1,2-Benzisoxazol-3-yl-4-{3-[(2,5-dichlorophenyl)ethynyl]benzyl}-piperazine-1-carboxamide], the values for the pIC50 against rat FAAH and against FAAH were 6.53 and 7.80, respectively.

For the molecule `N#Cc1ccccc1C#Cc1cccc(CN2CCN(C(=O)Nc3noc4ccccc34)CC2)c1` [Example 85, N-1,2-Benzisoxazol-3-yl-4-{3-[(2-cyanophenyl)ethynyl]benzyl}-piperazine-1-carboxamide], the pIC50 is 7.64 against rat FAAH and 7.74 on FAAH.

With `O=C(Nc1noc2ccccc12)N1CCN(Cc2cccc(C#Cc3cccc4ccccc34)c2)CC1` [Example 86, N-1,2-Benzisoxazol-3-yl-4-[3-(naphthalen-1-ylethynyl)benzyl]piperazine-1-carboxamide], the negative logarithm of the IC50 (pIC50) was 6.24 against rat FAAH and 5.52 on FAAH.

For the molecule `COC(=O)c1ccccc1C#Cc1cccc(CN2CCN(C(=O)Nc3noc4ccccc34)CC2)c1` [Example 87, Methyl 2-[(3-{[4-(1,2-benzisoxazol-3-ylcarbamoyl)piperazin-1-yl]methyl}phenyl)ethynyl]benzoate], the pIC50 was 6.32 on rat FAAH and 5.70 at FAAH.

For `N#Cc1cccc(C#Cc2cccc(CN3CCN(C(=O)Nc4noc5ccccc45)CC3)c2)c1` [Example 88, N-1,2-Benzisoxazol-3-yl-4-{3-[(3-cyanophenyl)ethynyl]benzyl}piperazine-1-carboxamide], the negative-log IC50 (pIC50) against rat FAAH was 7.19; against FAAH, 7.82.

As to `O=C(Nc1noc2ccccc12)N1CCN(Cc2cccc(C#Cc3ccc4c(c3)OCO4)c2)CC1` [Example 89, N-1,2-Benzisoxazol-3-yl-4-[3-(1,3-benzodioxol-5-ylethynyl)benzyl]-piperazine-1-carboxamide], the negative logarithm of the IC50 (pIC50) is 6.26 against rat FAAH and 6.19 against FAAH.

For the molecule `O=C(Nc1noc2ccccc12)N1CCN(Cc2cccc(C#Cc3cccc(Cl)c3Cl)c2)CC1` [Example 90, N-1,2-Benzisoxazol-3-yl-4-{3-[(2,3-dichlorophenyl)ethynyl]benzyl}-piperazine-1-carboxamide], the pIC50 on rat FAAH is 6.09; against FAAH it was 6.71.

In the case of `N#Cc1c(F)cccc1C#Cc1cccc(CN2CCN(C(=O)Nc3noc4ccccc34)CC2)c1` [Example 91, N-1,2-Benzisoxazol-3-yl-4-{3-[(2-cyano-3-fluorophenyl)ethynyl]-benzyl}piperazine-1-carboxamide], the pIC50 at rat FAAH is 7.68; against FAAH it was 7.52.

With `N#CCc1ccccc1C#Cc1cccc(CN2CCN(C(=O)Nc3noc4ccccc34)CC2)c1` [Example 92, N-1,2-Benzisoxazol-3-yl-4-(3-{[2-(cyanomethyl)phenyl]ethynyl}-benzyl)piperazine-1-carboxamide], the pIC50 against rat FAAH is 6.58; against FAAH, 7.57.

As for `COC(=O)Cc1ccccc1C#Cc1cccc(CN2CCN(C(=O)Nc3noc4ccccc34)CC2)c1` [Example 93, Methyl {2-[(3-{[4-(1,2-benzisoxazol-3-ylcarbamoyl)piperazin-1-yl]methyl}phenyl)ethynyl]phenyl}acetate], the pIC50 at rat FAAH is 6.65; on FAAH, 6.99.

In general, pIC50 refers to the IC50 on a negative log10 scale, so that one unit is a factor of ten. A lower pIC50 goes with a large IC50.
